Measured values: publication PMC4697443 (Bioorganic & medicinal chemistry, 2015)
Marks after values point to notes of the source that are not given here.

Test system: BV2 microglial cells

## 3-Chloro-N-(1-methyl-1H-benzo[d]imidazol-2-yl)benzamide [Compound 7]
  Viability: 1000^d μM
